Source: ChEMBL document CHEMBL1156829 (Proc Natl Acad Sci U S A, 2008)

How the values were obtained:
Plasmodium falciparum [1] = experiment: NOVARTIS: Inhibition of Plasmodium falciparum 3D7 (drug-susceptible) proliferation in erythrocyte-based infection assay; type: functional, organism-based; conditions: Plasmodium falciparum, 3D7
Plasmodium falciparum [2] = experiment: NOVARTIS: Inhibition of Plasmodium falciparum W2 (drug-resistant) proliferation in erythrocyte-based infection assay; type: functional, organism-based; conditions: Plasmodium falciparum, W2; read-out: EC50
[3] = NOVARTIS: Cytotoxicity against human hepatocellular carcinoma cell line (Huh7); type: toxicity, cell-based, Huh-7; conditions: Huh7 cells (hepatocellular carcinoma cell line)

SMILES	EC50 (Plasmodium falciparum [1]) [µM]	EC50 (Plasmodium falciparum [2]) [µM]	CC50 [3] [µM]
CCOC(=O)c1sc2ncnc(NCc3ccc(F)cc3)c2c1C	> 12.5	> 3.63	> 100
CCN1/C(=C/c2sc3ccc(I)cc3[n+]2CC)C=Cc2ccccc21	0.55	0.364	> 10
FC(F)(F)c1cccc(C=NNc2nc3ccccc3[nH]2)c1	0.0946	0.115	63.2
O=C1C=C(Nc2ccc(O)cc2)c2ccccc2C1=O	0.73	0.785	5.12
CCCCc1ccc(C(=O)NCCCN(C(=O)Nc2ccc([N+](=O)[O-])cc2)c2ccccc2)cc1	> 1.25	1.21	2.69
Cc1cccc2cc(C(c3nnnn3C3CCCC3)N3CCCC4(CCCCC4)C3)c(=O)[nH]c12 (configuration not stated)	> 1.25	> 0.209	> 10
CC1(C)C2CCC1(C)C(OCC[N+]1(Cc3ccccc3)CCCC1)C2 (configuration not stated)	0.161	0.195	12.7
CCN(CC)CCCN(Cc1cc2ccc(C)cc2[nH]c1=O)C(=S)Nc1cccc(Cl)c1	0.7	0.176	22.1
Cc1ccc(N2C(=O)c3sc4nnc(C)c(=O)n4c3C2=O)cc1	> 0.595	0.315	> 10
CC[n+]1c(/C=C/c2cc(Br)ccc2OC)ccc2ccccc21	0.155	0.202	> 10
CCN1/C(=C\C=C\C2=[N+](C)c3ccccc3C2(C)C)N(c2ccccc2)c2ccccc21	1.41	1.26	> 10
O=C(NCCN1CCCCC1)c1ccc(OC2CCN(CC3CCCCC3)CC2)c(Cl)c1	0.344	1.17	5.37
Cc1nc2ccc(NC(=O)C3CC3)cc2c(=O)n1Cc1ccc(Cl)cc1	1.17	1.82	> 100
O=C(c1ccncc1)N1N=C(C(F)(F)F)CC1(O)c1cccc([N+](=O)[O-])c1 (configuration not stated)	> 1.22	> 1.68	> 10
O=C(Cc1ccccc1)NC(c1ccccc1)c1ccc2cccnc2c1O (configuration not stated)	0.423	0.382	> 100
CC(=O)N(C1=C(N(C)C)C(=O)c2ccccc2C1=O)c1cc(C)cc(C)c1	0.023	0.0415	2.23
Nc1cccc(C(=O)Nc2ccc(Oc3cccc(Oc4ccc(NC(=O)c5cccc(N)c5)cc4)c3)cc2)c1	> 12	2.55	> 100

SMILES	EC50 (Plasmodium falciparum [1]) [µM]	EC50 (Plasmodium falciparum [2]) [µM]	CC50 [3] [µM]
CCOC(=O)c1c(NC(=O)C(C)Sc2ncnc3c2oc2ccccc23)sc2c1CCC2 (configuration not stated)	> 8.81	2.9	> 100
CC(=O)Nc1cc([N+](=O)[O-])ccc1N1CCOCC1	> 1.55	1.51	> 10
O=C(Nc1ccc(C2=NCCN2)c(Cl)c1)c1cccc(C(=O)Nc2ccc(C3=NCCN3)c(Cl)c2)c1	0.307	0.103	> 10
CC(=O)O[C@@H]1C(=O)[C@@]2(C)[C@H]([C@H](OC(=O)c3ccccc3)[C@@]3(O)C[C@H](OC(=O)[C@H](O)[C@@H](NC(=O)c4ccccc4)c4ccccc4)C(C)=C1C3(C)C)[C@]1(OC(C)=O)CO[C@@H]1C[C@@H]2O	0.0982	0.0386	1.21
O=C1CSC(=NN=Cc2cccnc2)N1c1ccccc1	> 12.5	2.49	> 100
COc1cccc(C(=O)C[n+]2cc(-c3ccc(Cl)cc3)n3c2CCC3)c1	1.74	0.975	> 100
Cn1nccc1C(OCC(=O)N1CCOCC1)c1ccc(F)cc1 (configuration not stated)	0.134	0.0892	> 10
CCOc1ccc(Nc2nc(N3CCCCC3)nc(N3CCCCC3)n2)cc1	1.19	> 1.25	> 10
Cn1c(SCc2cccc([N+](=O)[O-])c2)nc2c(c1=O)SCC2	3.28	2.79	> 100
COc1ccccc1C1SCCN1C(=O)Nc1ccc(Cl)c(Cl)c1 (configuration not stated)	> 1.02	2.25	> 10
O=[N+]([O-])c1cc(Br)c(Nc2ccccc2)c([N+](=O)[O-])c1	0.167	0.0758	6.6
COc1cc(NC(C)CCCN(Cc2ccc(OC)c(OC)c2)C(=O)NC2CCCCC2)c2ncccc2c1 (configuration not stated)	0.676	0.337	1.3
CCN(CC)CCCC(C)N(Cc1cccc(OCc2ccccc2)c1)C(=O)NCc1ccccc1 (configuration not stated)	> 1.25	> 1.1	> 10
Nc1ccc(-c2nc3ccc(-c4nc5ccc(N)cc5[nH]4)cc3[nH]2)cc1	0.12	0.0556	> 100
COc1ccc(C(=O)C(C#N)=CNC2CCN(Cc3ccccc3)CC2)cc1	0.177	0.875	24.8
Cc1cc(C)n(-c2ccc(NC(=O)C3CCN(Cc4ccncc4)CC3)cc2)n1	1.28	1.48	> 100
O=C(CSc1nc2ccccc2[nH]1)Nc1ccc(Cl)cc1Cl	> 0.79	> 1.25	> 10
